Experimental data as given in patent publication US20130209582A1, “HYDROGEN IODIDE-[…] FOOD AND HYDROGEN IODIDE-CONTAINING DRUG, AND METHOD FOR PRODUCING SAME” (priority 2010, published 2013).

Assay: Gastrointestinal absorption and retention in the thyroid gland after taking hydrogen iodide into the body
Type: in vivo
Conditions: through gastrointestinal absorption
Description: When taking hydrogen iodide into the body, the hydrogen iodide reaches to the thyroid gland within 30 minutes through gastrointestinal absorption. Since the hydrogen iodide is retained in the thyroid gland for about two hours, it is preferable to take the health food or the pharmaceutical product every two hours in a serious case. Moreover, it is preferable to take them not in large quantities at one time, but in small quantities frequently on an empty stomach.

SMILES: I [hydrogen iodide]
- time to reach the thyroid gland: ≤ 30 min
